Our source for the Kd values is article PMC6386544 (Infection and Immunity, 2019).

Like-named read-outs stand apart in the source and are kept apart here.

In experiment [1] the target is T1, ToxB-B2 (Clostridioides difficile, UniProt P18177).
T1 construct: gene tcdB
As to conditions: glycan 160 nM to 100 μM.

Experiment [2] addresses T2, ToxA-B1 (Clostridioides difficile, UniProt P16154).
T2 construct: gene tcdA
As to conditions: glycan 160 nM to 100 μM.

In experiment [3] the target is T3, ToxA-B3 (Clostridioides difficile, UniProt P16154).
T3 construct: gene tcdA
As to conditions: glycan 160 nM to 100 μM.

Experiment [4] addresses T4, ToxB-GT (Clostridioides difficile, UniProt P18177).
T4 construct: gene tcdB
As to conditions: glycan 160 nM to 100 μM.

Experiment [5] concerns the target T1, ToxB-B2. Description: biochemical.
The target of experiment [6] is T3, ToxA-B3. Description: biochemical.
Experiment [7] deals with T4, ToxB-GT. Nature of the experiment: biochemical.
Experiment [8] addresses T2, ToxA-B1. Description: biochemical.
Where [9] appears, read: read-out: Protein binding (KD)^a / ToxB-B2.
[10] abbreviates: read-out: Protein binding (KD)^a / ToxA-B1.
The mark [11] stands for this setting: read-out: Protein binding (KD)^a / ToxA-B3.

For the compound `CC(=O)N[C@H]1[C@H](O[C@H]2[C@@H](O)[C@@H](CO)OC(O)[C@@H]2O)O[C@H](CO)[C@@H](O[C@@H]2O[C@@H](C)[C@@H](O)[C@@H](O)[C@@H]2O)[C@@H]1O[C@@H]1O[C@H](CO)[C@H](O)[C@H](O)[C@H]1O` (some centres unmarked) [Lewis A], the Kd at ToxB-B2 [1] (setting [9]) was 0.579 ± 0.037 µM; on ToxA-B1 [2] (setting [10]) it was 3.38 ± 0.95 µM; on ToxA-B3 [3] (setting [11]), 1.65 ± 0.62 µM; on ToxB-GT [4], greater than 100 µM.

Turning to Lewis Y, the Kd on ToxB-B2 [1] (setting [9]) is 8 ± 0.74 µM; on ToxA-B1 [2] (setting [10]), 12.7 ± 2.47 µM; at ToxA-B3 [3] (setting [11]), 55.5 ± 28.8 µM; at ToxB-GT [4] it was greater than 100 µM.

On to `CC(=O)N[C@H]1[C@H](O[C@H]2[C@@H](O)[C@@H](CO)OC(O)[C@@H]2O)O[C@H](CO)[C@@H](O[C@@H]2O[C@@H](C)[C@@H](O)[C@@H](O)[C@@H]2O)[C@@H]1O[C@@H]1O[C@H](CO)[C@H](O)[C@H](O)[C@H]1O[C@@H]1O[C@@H](C)[C@@H](O)[C@@H](O)[C@@H]1O` (some centres unmarked) [Lewis B], for which the Kd was 0.395 ± 0.029 µM at ToxB-B2 [1] (setting [9]) and greater than 100 µM at ToxB-GT [4].

With `CO[C@H]1O[C@H](CO)[C@@H](O)[C@H](O)[C@@H]1O` [α-Methyl-mannose], the Kd was 0.315 ± 0.103 µM on ToxB-B2 [5], greater than 100 µM at ToxA-B3 [6], greater than 100 µM at ToxB-GT [7] and greater than 100 µM on ToxA-B1 [8].

As for `CC(=O)N[C@H]1[C@H](O[C@H]2[C@@H](O)[C@@H](CO)OC(O)[C@@H]2O)O[C@H](CO)[C@@H](O[C@@H]2O[C@H](CO)[C@H](O)[C@H](O)[C@H]2O)[C@@H]1O[C@@H]1O[C@@H](C)[C@@H](O)[C@@H](O)[C@@H]1O` (some centres unmarked) [Lewis X], the Kd on ToxB-B2 [1] (setting [9]) is 0.501 ± 0.308 µM; on ToxA-B1 [2] (setting [10]) it was 18.9 ± 5.58 µM; on ToxA-B3 [3] (setting [11]), 16.5 ± 2.8 µM; at ToxB-GT [4] it was greater than 100 µM.

Take `C[C@@H]1O[C@@H](O[C@H]2[C@H](O[C@H]3[C@H](O)[C@@H](O)C(O)O[C@@H]3CO)O[C@H](CO)[C@H](O)[C@@H]2O[C@H]2O[C@H](CO)[C@H](O)[C@H](O)[C@H]2O)[C@@H](O)[C@H](O)[C@@H]1O` (some centres unmarked) [Blood group B]: the Kd on ToxB-B2 [1] (setting [9]) is 42.9 ± 59.1 µM; on ToxA-B1 [2] (setting [10]) it was 11.4 ± 1.08 µM; at ToxA-B3 [3] (setting [11]) it was 14.4 ± 3.2 µM; on ToxB-GT [4] it was greater than 100 µM.

Regarding Blood group A, the Kd at ToxB-B2 [1] (setting [9]) is 0.0291 ± 0.0075 µM; at ToxA-B1 [2] (setting [10]) it was 1.53 ± 0.6 µM; at ToxA-B3 [3] (setting [11]), 0.0614 ± 0.0296 µM; at ToxB-GT [4] it was greater than 100 µM.

Regarding Blood group H, the Kd on ToxB-B2 [1] (setting [9]) was 0.428 ± 0.008 µM; at ToxA-B1 [2] (setting [10]) it was 1.22 ± 0.49 µM; at ToxA-B3 [3], greater than 100 µM; on ToxB-GT [4] it was greater than 100 µM.

In the case of Man5, the Kd on ToxB-B2 [1], on ToxA-B1 [2], on ToxA-B3 [3] and on ToxB-GT [4] was greater than 100 µM in each case.

In the case of Sialyl-Lewis A, the Kd is 2.39 ± 0.68 µM on ToxB-B2 [1] (setting [9]), 71.8 ± 27.1 µM at ToxA-B1 [2] (setting [10]), 72.1 ± 31.8 µM on ToxA-B3 [3] (setting [11]) and greater than 100 µM at ToxB-GT [4].
